Data set [1] has as its system ES cells. Put plainly: 3-D cytotoxicity (proliferation) assay, ES-GFP cells in PET scaffolds, low density. It is filed as cell-based. As to conditions: for IC50: read-out: 3-D cultures Ig50; for Ig50 in 2-D as times of Ig50 in 3-D: ratio 2-D/3-D. On the procedure: For the 3-D cytotoxicity assay, 25000 cells in 25 μl medium were seeded into each PET scaffold. After 6 h incubation to allow cell attachment, 180 μl medium were added to each well and incubated for another 18 h before transferring the seeded matrix to the center of the microbioreactor chamber containing 3 ml of the ES medium on the modified 96-well plate. The plates were then stacked onto a rotational shaker and put into a 37° C. CO2 incubator. The culture fluorescence was measured twice per day with a Cytofluor Series 4000 plate reader. Fluorescence signals from live cells were calculated as the values from the central well of the bioreactor minus the background from the surrounding medium and scaffold.
(§1) With the exponential-phase specific growth rate data, the cytotoxicity of various chemicals can be better evaluated by their Ig50 values defined as the concentration of the chemical causing 50% reduction in the exponential-phase specific cell growth rate.

For data set [2], the system named is HT-29-GFP. As to conditions: for times more resistance in tumor-like structure: compared with the results from 3-D proliferation assays (3-D low density cells); for effectiveness on high density colon cancer cells / time after drug adding at which fluorescence changed: tumor-like constructs. The text has this: (§2) Colon cancer is the third most frequently occurring cancer in the US and causes large numbers of deaths, second only to lung cancer. Treatment of progressed colon cancer involves surgical extraction combining chemotherapy and immunotherapy. The survival rate of colon cancer patients is only 55% due to the low effectiveness of these therapies. […] Butyric acid is a biological response modifier (BRM) and it acts synergistically with 5-FU against colorectal cancers by decreasing thymidine kinase mRNA. As a BRM, it can also increase cell specific productivity at the expense of inhibiting cell growth. […] In this case, the cytotoxicity of a chemical in 3-D cultures was defined as a concentration range of the chemical.
Gemcitabine is an S-phase specific drug.

Data set [3] deals with ES cells. Put plainly: 3-D high-density ES tissue constructs cytotoxicity. The data set is classed as cell-based. The settings on record: for Extent of cell kill: 3-D high-density, at maximum dose; for Rf (resistance factor): ratio between EC50 and Ig50; for EC50: 3-D high-density cell cultures, 50% of maximum fluorescence reduction, exposure four or six days after seeding. The text has this:
The effects of various drugs on ES cells grown in 3-D after reaching a high cell density (exposure four or six days after seeding the matrices) were studied and the results are shown in FIG. 14. EC50 (the concentration required for obtaining 50% of a maximum effect) is used to evaluate a drug's cytotoxicity effect on a high-density 3-D cell or tissue construct. Here, if the elimination of cells is considered as the maximum effect of a chemical, an EC50 is not always reached. […] For this case, the maximum effects were defined as the fluorescence reduction caused by the saturation concentration (DM and DPH) or a very high dose compared to doses used in 2-D assays (Penicillin G and 5-FU). In addition, it was also noticed that maximal effects changed along with time, so the time point with the largest value of the maximal effects was used for cytotoxicity definition. Rf (resistance factor) is defined as the ratio between EC50 and Ig50.

Data set [4] has as its system embryonic stem cell. As to conditions: embryotoxicity test previously reported; cited from earlier work.
Data set [5] deals with embryonic stem cell. As to conditions: embryotoxicity test previously reported; cited from earlier work. This is another data set of the same source.
The test system of data set [6] is ES cells. Nature of the data set: 2-D cytotoxicity assay, ES-GFP cells in 96-well plates. The settings on record: concentration causing 50% reduction in exponential-phase specific growth rate, drug added one day after inoculation; for IC50: read-out: 2-D cultures Ig50. The data set is classed as cell-based. As to the method: The 2-D cytotoxicity assay was performed in 96-well plates by inoculating 5000 cells into each well containing 150 μl of ES medium. The drug was added one day after inoculation. Fluorescent signals were measured twice per day in the culture plates. The fluorescence given by live cells was calculated as the signals obtained after replacing culture medium with the same volume of PBS minus the blanks.
as §1

Data set [7] relates to HT-29. Nature of the data set: Perfusion culture of HT-29 in microfluidic bioreactor array. It is filed as cell-based, human. As to conditions: 2 μg/ml fed continuously from beginning of perfusion; vs control without drug.
Protocol: A human colon cancer cell line HT-29 (ATCC: HTB-38™) was maintained in Dulbecco's Modified Eagle's Medium (DMEM, Gibco) supplemented with 10% fetal bovine serum (FBS, Gibco) in a cell culture incubator at 37° C. with 5% CO2. […] Then cells were diluted and seeded in a 96 well plate at around 5 cells per well. One green fluorescent colony was isolated and expanded in the absence of selective pressure geneticin (G-418, Gibco). The stability of the transfected cell line was verified by FACSCalibur (B-D) (>97%) compared to the negative control.
Before cell culture, the PET matrices were cut to small square patches (2.5 mm×3 mm) and then soaked in water and sterilized in an autoclave at 121° C. for 15 min. […] Then each seeded scaffold was transferred gently to a new well on the same 384-well plate, which was followed by fluorescence intensity measurement in the microplate reader at 485 nm excitation and 535 nm emission. The scaffolds with similar fluorescence intensity were selected and transferred to the wells in the middle two rows of the microbioreactor array. […]
Four 10 mL, syringes were autoclaved and filled with the maintenance media, which were then seated on a syringe pump (PHD 2000, Harvard Apparatus). […] Cell proliferation was analyzed twice a day with the specific plate definition scheme in the microplate reader. […]
The subject of data set [8] is HT-29-GFP.
From the text: as §2

Data set [9] deals with HT-29-GFP. Put plainly: HT-29-GFP proliferation assay, 2-D with cell counting. It is filed as cell-based. As to conditions: Homo sapiens, read-out: 2-D with cell counting (Ig50).
From the text: as §2

Data set [10] has as its system ES-GFP cells. Put plainly: Acute cytotoxicity live-cell kinetic assay, 3-D ES-GFP. The data set is classed as cell-based. The settings on record: high density 3-D ES-GFP, 2000 RFU; different doses. On the procedure: For the live-cell kinetic assays, acute cellular events can be easily characterized with online continuous fluorescence measurements without human intervention. The 3-D cell-based assay system was thus applied to test the response of ES-GFP cells to a surfactant, Triton X-100 (Sigma Chemical Company, St. Louis, Mo.). ES-GFP cells in the 3-D system were cultured to reach a high density with 2000 RFU fluorescence intensity. After applying different doses of Triton X-100, the culture plate was immediately put into the plate reader (Cytofluor Series 4000) at 37° C., with the cycle number set at 80 and cycle time at 3 min. The mixing time before each reading was 10 seconds. […] In general, increasing the surfactant concentration in the medium increased cell death, which followed a first order kinetics as indicated by the linear semilogarithmic plot (FIG. 10B). Triton X-100 is a non-ionic detergent commonly used to solubilize membrane proteins. The specific death rate kd at each Triton X-100 concentration can be estimated from the negative slope of the semi-log plots. […] The loss in the fluorescence signal for the control experiment without the surfactant was negligible and the slight decrease could be attributed to a slow increase in the medium pH outside the CO2 incubator. GFP fluorescence is marginally affected by the solution pH when it is in the neutral pH range.

Data set [11] concerns ES-GFP cells. Put plainly: Effect of fibronectin coating of PET matrix on ES-GFP cell growth. It is filed as cell-based. On the procedure:
Similarly, ES-GFP cells were used to study the effects of fibronectin coating of the PET matrix on cell growth. Fibronectin is involved in many cellular processes, one of which is to serve as a general cell adhesion molecule to help cells anchor onto proteoglycan or collagen substrates. Fibronectin is a commonly used extracellular matrix protein to enhance cell adhesion on the tissue scaffold. PET matrices were soaked in 10 μg/ml fibronectin (Sigma Chemical Company, St. Louis, Mo.) for 12 hours before use. The fibronectin-coated matrices were then placed in the growth medium and seeded with ES-GFP cells from the top of the scaffolds. […] Also, cells cultured in the fibronectin-coated matrix reached a maximum fluorescence intensity of 4000 RFU that was ˜2.5 times of that without fibronectin coating at 128 h. […] Cell spreading can also stimulate cell proliferation and contributes to uniform cell distribution in the 3-D matrix, which in turn allowed more light emission from the matrix. It is noted that cells developed different morphologies in these two matrices, with large aggregates formed in the matrix without fibronectin coating (FIG. 9D). The formation of large cell aggregates could add additional mass transfer limitation and further reduce cell growth. The adhesion of cells to PET fibers is important to determine the cell growth in the 3-D matrix.

Setting [12] is: concentration causing 50% reduction in exponential-phase specific growth rate, drug added one day after seeding.

Converted amounts (≈) assume the structure as drawn. “Also recorded” adds a separate entry of the source. Read-outs that look alike come from different tables or passages of the source. A value given as a limit tells only on which side of the number the result lay.

On to `O=c1[nH]cc(F)c(=O)[nH]1` [5-FU, 5-fluorouracil], for which the IC50 in data set [1] (setting [12]) came out at 0.035 µg/mL (≈ 0.269 µM). Besides, the “Tumor-like response assays, cytotoxicity concentration” value (from here on “Tumor-like response assays”) in data set [2] (human) was in the range of 10 to 100 µg/mL. The “effect on ES tissue constructs” value in [3] (100 μg/ml, 3-D high density) is reported as “no significant effect”. In data set [3], the “Extent of cell kill” value is listed as 20% and the “Rf (resistance factor)” value is over 1000. In addition, in [4], the “ECVAM IC50” value is 0.065 µg/mL. Moreover, the “ZEBET IC50” value in [5] was 0.09 µg/mL. The IC50 in data set [6] worked out at 0.045 µg/mL (≈ 0.346 µM). Moreover, the “effect on HT-29 proliferation in perfusion culture” value in data set [7] was “significantly reduced cell proliferation; also recorded: significantly inhibited”. Further, in data set [8] (human), the “2-D with fluorescence, cytotoxicity concentration” value (shortened to “2-D with fluorescence”) fell in the range of 0.052 to 0.26 µg/mL and the “3-D with fluorescence, cytotoxicity concentration” value (shortened to “3-D with fluorescence”) was 0.26 to 1.3 µg/mL. For the same molecule, in data set [9] (HT-29-GFP 2-D), the IC50 was under 0.26 µg/mL.

Turning to `C[C@@H]1C[C@H]2[C@@H]3CCC4=CC(=O)C=C[C@]4(C)[C@@]3(F)[C@@H](O)C[C@]2(C)[C@@]1(O)C(=O)CO` [DM, dexamethasone], the IC50 in data set [1] (setting [12]) worked out at 11.5 µg/mL (≈ 29.3 µM); in data set [6] it was 32 µg/mL (≈ 81.5 µM). For the same molecule, the “Ig50 in 2-D as times of Ig50 in 3-D” value in [1] was determined as 3 times. Further, the “Extent of cell kill” value in [3] was determined as 80.9%. Also, in data set [3] (144 h, read-out: EC50), the EC50 (usually the concentration giving half of the maximal effect) was determined as 65 µg/mL (≈ 166 µM). In addition, in data set [3], the “Rf (resistance factor)” value came to 5.7.

Regarding `O=C1NC(=O)C(c2ccccc2)(c2ccccc2)N1` [DPH, diphenylhydantoin], the IC50 is 39 µg/mL (≈ 155 µM) in data set [1] (setting [12]) and 30 µg/mL (≈ 119 µM) in [6]. Further, the “Extent of cell kill” value in data set [3] was determined as 52.2%. For the same molecule, the EC50 in [3] (144 h, read-out: EC50) came out at 600 µg/mL (≈ 2380 µM). Moreover, the “Rf (resistance factor)” value in [3] was found to be 15.4.

With `Nc1ccn([C@@H]2O[C@H](CO)[C@@H](O)C2(F)F)c(=O)n1` [Gemcitabine, gemcitabine], in data set [2], the “times more resistance in tumor-like structure” value (shortened to “times more resistance”) is on record as “(more than 1000 times” and the “effectiveness on high density colon cancer cells” value is given as “non-effective)”. Further, the “Tumor-like response assays” value in data set [2] (human) was over 1000 µM. Further, the “effectiveness on high density colon cancer cells” value in data set [2] (listed as gemcitabine) was “totally resistant”. Also, in [8] (human), the “2-D with fluorescence” value worked out at 0.625 µM and the “3-D with fluorescence” value lay in the range of 0.001 to 0.005 µM. For the same molecule, in data set [9] (HT-29-GFP 2-D), the IC50 was determined as 0.005 µM.

As for `CC1(C)S[C@@H]2[C@H](NC(=O)Cc3ccccc3)C(=O)N2[C@H]1C(=O)O` [Penicillin G, penicillin G], the “3-D cultures Ig50” value in data set [1] (setting [12]) amounted to 750 µg/mL. For the same molecule, the “Ig50 in 2-D as times of Ig50 in 3-D” value in [1] is given as 6 times. In addition, in data set [3], the EC50 stood at 23000 µg/mL (≈ 68800 µM), the “Extent of cell kill” value is given as 62.3% and the “Rf (resistance factor)” value turned out to be 30.7. The “ECVAM IC50” value in [4] is 2000 µg/mL. Besides, in data set [5], the “ZEBET IC50” value was 2100 µg/mL. In [6], the “2-D cultures Ig50” value came to 4500 µg/mL.

With `CCCC(=O)[O-].[Na+]` [Sodium butyrate, sodium butyrate], in data set [2], the “times more resistance” value was “(about 10 times” and the “time after drug adding at which fluorescence changed” value is reported as “changed one day”. Also, in [2] (listed as sodium butyrate), the “times more resistance” value amounted to 10 times and the “time after drug adding at which fluorescence changed” value is on record as “one”. The “Tumor-like response assays” value in data set [2] (drug added at high density) was in the range of 10000 to 100000 µM. Moreover, in data set [8] (3-D low density, lowest concentration causing significant difference of fluorescent kinetics vs control), the “3-D with fluorescence” value lay in the range of 2000 to 8000 µM. For the same molecule, in data set [8] (lowest concentration causing significant difference of fluorescent kinetics vs control), the “2-D with fluorescence” value is 8000 to 32000 µM. Besides, in data set [9], the IC50 was determined as 2000 µM.

Turning to Triton X-100, the “acute cellular response (loss in culture fluorescence)” value in [10] is listed as “caused an acute cell death”.

For the molecule fibronectin, the specific growth rate in data set [11] (PET matrices soaked in 10 μg/ml fibronectin, without coating 0.0335) was 0.0458 h⁻¹. Further, the “maximum fluorescence intensity relative to that without fibronectin coating” value in data set [11] (at 128 h) is about 2.5 times. For the same molecule, the maximum fluorescence intensity in data set [11] (fibronectin-coated matrix, 128 h) was determined as 4000 RFU. The doubling time in data set [11] (with fibronectin coating, without coating 20.7) worked out at 15.1 h. For the same molecule, the “enhancement of specific growth rate” value in data set [11] (with vs without fibronectin coating) is 37%.

The values above are taken from patent US8603806B2, “Materials and methods for cell-based assays” (The Ohio State Universtiy Research Foundation, priority 2005, dated 2013).
